Experimental findings from article PMC12081497, “Design, synthesis, and anti-breast cancer activity evaluation of novel 3-cyanopyridine derivatives as PIM-1 inhibitors” (Molecular Diversity, 2024) are described below.

As a reminder, the melting point is the temperature, or range, at which the solid turns liquid. One may read the IC50 as the concentration at which inhibition is half-maximal.

The test system of series [1] is MCF-7 human cancer cell line. As to the kind of experiment: In vitro anti-proliferative MTT assay. It is filed as cell-based. As to the method: In the present study, all synthesized cyanopyridine hybrids were subjected to in vitro cytotoxicity testing using the MTT assay method against MCF-7 human cancer.
All cell lines were maintained in RPMI1640 medium containing 10% FBS at 37 °C in 5% CO2 humidified incubator. Cell proliferation assay was determined by the MTT (3-[4,5-dimethyl-2-thiazolyl]-2,5- diphenyl-2H-tetrazolium bromide) method. Briefly, cells were plated in triplicate wells (3–5 × 10^4 cells/well) of 96-well flat-bottomed plates and incubated overnight prior to drug exposure and then treated with different concentrations of the tested compounds for 48 h. After that, 20 μL of MTT reagent at a final concentration of 0.5 mg/mL was added to each well. Cells were then incubated for 2 h with MTT, after which 100 μL of DMSO solution was added to dissolve the formazan salt resulting from the reduction of MTT and the absorbance was read at 570 nm using an automatic plate reader. The IC50 values were calculated according to inhibition ratios from three independent experiments.
For orientation: Tetrazolium assays rely on reduction of a dye to a coloured formazan, in cell work by metabolically active cells.

Setting [2] is: Homo sapiens, MCF7, 48 h, MTT, MCF-7, 48 h treatment, read-out: Cytotoxicity IC50, SD (±), MCF7.
[3] abbreviates: MTT, MCF-7, 48 h treatment, read-out: Cytotoxicity IC50, SD (±), MCF7.

Where two headings read alike, the source gives them in different places.

The molecule `COc1cc(-c2cc(-c3ccc[n+](C)c3)nc(OC)c2C#N)ccc1OCC(=O)Nc1ccccc1.[I-]` [compound 10, 5-cyano-6-methoxy-4-(3-methoxy-4-(2-oxo-2-(phenylamino)ethoxy)phenyl)-1'-methyl-2,3'-bipyridin-1'-iumiodide] displayed a melting point of 284 to 286 °C. Further, the IC50 in series [1] (setting [2]) was found to be 2.13 ± 0.09 µM. Also, the IC50 in series [1] (setting [3]) came to 2.14 ± 0.09 µM. Turning to `COc1cc(-c2cc(-c3ccc4ccccc4c3)n(C)c(=O)c2C#N)ccc1OCC(=O)Nc1ccccc1` [9f, 2-(4-(3-Cyano-1-methyl-6-(naphthalen-2-yl)-2-oxo-1,2-dihydropyridin-4-yl)-2-methoxyphenoxy)-N-phenylacetamide], the melting point is 193 to 195 °C. In addition, the IC50 in series [1] (setting [2]) amounted to 41.4 ± 1.7 µM. Consider `COc1cccc(-c2cc(-c3ccc(OCC(=O)Nc4ccccc4)c(OC)c3)c(C#N)c(=O)n2C)c1` [9b, 2-(4-(3-Cyano-6-(3-methoxyphenyl)-1-methyl-2-oxo-1,2-dihydropyridin-4-yl)-2-methoxyphenoxy)-N-phenylacetamide], for which the values for the IC50 in series [1] (setting [2]) and in series [1] (setting [3]) were 8.79 ± 0.36 µM and 8.8 ± 0.36 µM, respectively.

For “2-(4-(3-Cyano-2-oxo-6-phenyl-1,2-dihydropyridin-4-yl)-2-methoxyphenoxy)-N-phenylacetamide [8a]”, it took 14.3 ± 0.59 µM to reach half-maximal inhibition in series [1] (IC50).

`COc1cc(-c2cc(-c3ccc4ccccc4c3)nc(OC)c2C#N)ccc1OCC(=O)Nc1ccccc1` [8f] registered a melting point of 193 to 195 °C. Take `COc1cccc(-c2cc(-c3ccc(OCC(=O)Nc4ccccc4)c(OC)c3)c(C#N)c(OC)n2)c1` [8b, 2-(4-(3-Cyano-2-methoxy-6-(3-methoxyphenyl)-pyridin-4-yl)-2-methoxy-phenoxy)-N-phenylacetamide]: the melting point lay in the range of 158 to 160 °C. In addition, the IC50 in series [1] (setting [2]) came out at 36.2 ± 1.49 µM. As to `COc1cc(-c2cc(-c3ccccc3)n(C)c(=O)c2C#N)ccc1OCC(=O)Nc1ccccc1` [9a, 2-(4-(3-Cyano-1-methyl-2-oxo-6-phenyl-1,2-dihydropyridin-4-yl)-2-methoxyphenoxy)-N-phenylacetamide], the IC50 in series [1] (setting [2]) and in series [1] (setting [3]) was 9.1 ± 0.37 µM each time. For the molecule `COc1cc(-c2cc(-c3ccncc3)[nH]c(=O)c2C#N)ccc1OCC(=O)Nc1ccccc1` [7i, 2-(4-(3-Cyano-2-oxo-6-(pyridin-4-yl)-1,2-dihydropyridin-4-yl)-2-methoxyphenoxy)-N-phenylacetamide], in series [1] (setting [2]), the IC50 came out at 23.9 ± 0.98 µM. In turn, `COc1cc(-c2cc(-c3ccco3)[nH]c(=O)c2C#N)ccc1OCC(=O)Nc1ccccc1` [7f, 2-(4-(3-Cyano-6-(furan-2-yl)-2-oxo-1,2-dihydropyridin-4-yl)-2-methoxyphenoxy)-N-phenylacetamide] returned a melting point of 296 to 298 °C. Moreover, in series [1] (setting [2]), the IC50 stood at 3.98 µM. Further, the IC50 in series [1] (setting [3]) is 3.98 ± 0.16 µM. `COc1cc(-c2cc(-c3ccc4ccccc4c3)[nH]c(=O)c2C#N)ccc1OCC(=O)Nc1ccccc1` [7j, 2-(4-(3-Cyano-6-(naphthalen-2-yl)-2-oxo-1,2-dihydropyridin-4-yl)-2-methoxyphenoxy)-N-phenylacetamide] returned a melting point above 300 °C. In addition, in series [1] (setting [2]), the 50% inhibitory concentration (IC50) stood at 20.1 ± 0.83 µM. As to `COc1cc(-c2cc(-c3ccc(Br)cc3)[nH]c(=O)c2C#N)ccc1OCC(=O)Nc1ccccc1` [7e, 2-(4-(6-(4-Bromophenyl)-3-cyano-2-oxo-1,2-dihydropyridin-4-yl)-2-methoxyphenoxy)-N-phenylacetamide], the IC50 in series [1] (setting [2]) was 21.9 ± 0.9 µM. In turn, “2-(4-(6-(4-Chlorophenyl)-3-cyano-2-oxo-1,2-dihydropyridin-4-yl)-2-methoxyphenoxy)-N-phenylacetamide [9d]” yielded an IC50 in series [1] of 2.05 µM. Molecule `COc1cc(-c2cc(-c3ccc(Cl)cc3)[nH]c(=O)c2C#N)ccc1OCC(=O)Nc1ccccc1` [7d, 2-(4-(6-(4-Chlorophenyl)-3-cyano-2-oxo-1,2-dihydropyridin-4-yl)-2methoxyphenoxy)-N-phenylacetamide] returned a melting point of 276 to 278 °C. Further, the IC50 in series [1] (setting [2]) was 41.1 ± 1.69 µM. Take `COc1cccc(-c2cc(-c3ccc(OCC(=O)Nc4ccccc4)c(OC)c3)c(C#N)c(=O)[nH]2)c1` [7b, 2-(4-(3-Cyano-6-(3-methoxyphenyl)-2-oxo-1,2-dihydropyridin-4-yl)-2methoxyphenoxy)-N-phenylacetamide]: in series [1] (setting [2]), the IC50 is 56.8 ± 2.34 µM. On the same count and under the same terms, the same measure for `COc1cc(-c2cc(-c3ccc(Br)cc3)n(C)c(=O)c2C#N)ccc1OCC(=O)Nc1ccccc1` [9e, 2-(4-(6-(4-Bromophenyl)-3-cyano-1-methyl-2-oxo-1,2-dihydropyridin-4-yl)-2-methoxyphenoxy)-N-phenylacetamide]: 18.3 ± 0.75 µM. For `COc1cc(-c2cc(-c3cccs3)[nH]c(=O)c2C#N)ccc1OCC(=O)Nc1ccccc1` [7g, 2-(4-(3-Cyano-2-oxo-6-(thiophen-2-yl)-1,2-dihydropyridin-4-yl)-2-methoxyphenoxy)-N-phenylacetamide], the melting point was in the range of 293 to 295 °C. In addition, the IC50 in series [1] (setting [2]) turned out to be 1.92 ± 0.08 µM. Further, the concentration for half-maximal inhibition (IC50) in series [1] (setting [3]) came out at 1.93 ± 0.08 µM. Turning to `COc1cc(-c2cc(-c3ccc(Br)cc3)nc(OC)c2C#N)ccc1OCC(=O)Nc1ccccc1` [8e, 2-(4-(6-(4-Bromophenyl)-3-cyano-2-methoxypyridin-4-yl)-2-methoxyphenoxy)-N-phenylacetamide], the IC50 in series [1] (setting [2]) is 42.6 ± 1.75 µM. For the molecule `COc1cc(-c2cc(-c3ccco3)nc(OC)c2C#N)ccc1OCC(=O)Nc1ccccc1` [8g, 2-(4-(3-Cyano-6-(furan-2-yl)-2-methoxypyridin-4-yl)-2-methoxyphenoxy)-N-phenyl acetamide], the melting point was in the range of 178 to 180 °C. Besides, in series [1] (setting [2]), the IC50 was found to be 21.3 ± 0.87 µM.

“2-(4-(6-(4-Chlorophenyl)-3-cyano-2-oxo-1,2-dihydropyridin-4-yl)-2-methoxyphenoxy)-N-phenylacetamide [8d]” returned an IC50 in series [1] of 18 ± 0.74 µM. `COc1cc(-c2cc(-c3ccco3)n(C)c(=O)c2C#N)ccc1OCC(=O)Nc1ccccc1` [9g, 2-(4-(3-Cyano-6-(furan-2-yl)-1-methyl-2-oxo-1,2-dihydropyridin-4-yl)-2-methoxyphenoxy)-N-phenylacetamide] returned a melting point of 170 to 172 °C. Moreover, the IC50 in series [1] (setting [2]) was determined as 13.2 ± 0.54 µM.

With `COc1ccc(-c2cc(-c3ccc(OCC(=O)Nc4ccccc4)c(OC)c3)c(C#N)c(=O)[nH]2)cc1` [7c, 2-(4-(3-Cyano-6-(4-methoxyphenyl)-2-oxo-1,2-dihydropyridin-4-yl)-2-methoxyphenoxy)-N-phenylacetamide], the melting point fell in the range of 284 to 286 °C. The IC50 in series [1] (setting [2]) stood at 7.72 ± 1.69 µM. The IC50 in series [1] (setting [3]) worked out at 7.73 ± 0.32 µM. The matching figures for `COc1cc(-c2cc(-c3ccccc3)[nH]c(=O)c2C#N)ccc1OCC(=O)Nc1ccccc1` [7a, 2-(4-(3-Cyano-2-oxo-6-phenyl-1,2-dihydropyridin-4-yl)-2-methoxyphenoxy)-Nphenylacetamide]: 276 to 278 °C, 8.06 ± 0.33 µM and 8.06 ± 0.33 µM. On to `COc1ccc(-c2cc(-c3ccc(OCC(=O)Nc4ccccc4)c(OC)c3)c(C#N)c(=O)n2C)cc1` [9c, 2-(4-(3-Cyano-6-(4-methoxyphenyl)-1-methyl-2-oxo-1,2-dihydropyridin-4-yl)-2-methoxyphenoxy)-N-phenylacetamide], for which the half-maximal inhibitory concentration (IC50) in series [1] (setting [2]) is 26.1 ± 1.07 µM.

Turning to `COc1cccc2c1C(=O)c1c(O)c3c(c(O)c1C2=O)C[C@@](O)(C(=O)CO)C[C@@H]3O[C@H]1C[C@H](N)[C@H](O)[C@H](C)O1` [Doxorubicin, reference compound], the IC50 in series [1] (setting [2]) and in series [1] (setting [3]) was 11.5 ± 0.47 µM each time.
